# From patent US20230357761A1, “ACTIVATORS OF TYPE III CAS PROTEINS” (THE REGENTS OF THE UNIVERSITY OF CALIFORNIA, priority 2020, published 2023)
# [5mC] = 5-methylcytosine; d = 2'-deoxy (DNA); r = 2'-OH (RNA); f = 2'-fluoro
# Columns and labels:
# [1] = target: T1, T. thermophilus Csm6 (TtCsm6) (Thermus thermophilus, UniProt Q53W17); assay: Cas13-coupled TtCsm6 activation assay, fluorescence of cleaved polyC RNA reporter; type: biochemical; conditions: for kinetics of development of fluorescent signal over time / duration and level of fluorescent signal: FIG. 2; for kinetics of development of fluorescent signal over time: 20 nM Cas13 RNP, 100 nM Csm6, 100 pM Cas13 activator [R010], 200 nM C5 reporter, 2 μM Type III accessory nuclease activator, IGI buffer, versus unmodified NCR142; for duration and level of fluorescent signal: same reaction as E1, versus unmodified NCR142, which was used at 4 times the concentration
# T1 sequence (Q53W17 1-464): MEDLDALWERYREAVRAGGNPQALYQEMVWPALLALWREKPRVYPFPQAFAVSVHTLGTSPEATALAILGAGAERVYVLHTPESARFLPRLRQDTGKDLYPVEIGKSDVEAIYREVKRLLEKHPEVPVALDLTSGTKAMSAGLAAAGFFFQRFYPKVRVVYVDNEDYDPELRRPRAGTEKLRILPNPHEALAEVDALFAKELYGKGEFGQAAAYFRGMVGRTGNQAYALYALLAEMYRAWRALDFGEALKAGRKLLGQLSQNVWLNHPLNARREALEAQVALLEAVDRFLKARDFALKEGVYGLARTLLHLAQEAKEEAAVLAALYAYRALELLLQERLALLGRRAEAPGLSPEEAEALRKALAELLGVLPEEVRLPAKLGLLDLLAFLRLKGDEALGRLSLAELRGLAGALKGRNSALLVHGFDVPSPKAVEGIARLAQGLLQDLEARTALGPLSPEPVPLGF
# Protocol: To test the impact of modifications of the Type III accessory nuclease activators, the following system was used (see FIG. 1). Cas13 ribonucleoprotein complexes (RNP) were assembled using LbuCas13 protein and guides at room temperature at a concentration of 0.5 μM Cas13 in 1× reaction buffer.
# In some experiments, the 1× reaction buffer comprised 20 mM HEPES, pH 6.8, 50 mM KCl, 5 mM MgCl2, 100 μg/mL BSA, 0.01% Igepal CA, 2% glycerol (“IGI buffer”) while in other experiments, the 1× reaction buffer comprised 20 mM HEPES, pH 6.8, 50 mM KCl, 5 mM MgCl2, 5% glycerol (“Ott buffer”). Once assembled, the RNPs were diluted with 1× reaction buffer to 10× the final [RNP] in the reaction (200 nM for 20 nM final concentration). Concentrated T. thermophilus Csm6 (TtCsm6) protein was also diluted to 10× the concentration (1 μM for 100 nM final concentration) in 1× reaction buffer. The activator mix was assembled on ice, containing 20× concentration of the Cas13 activator, 20× concentration of the secondary Csm6 activator, and 10× of a polyC RNA reporter (6-FAM-CCCCC-Iowa Black®, Integrated DNA Technologies) in 1× reaction buffer. The proteins were then mixed together to make an RNP/protein master mix in 1× reaction buffer. Volumes to use were determined such that 15 μL of this master mix was added to 5 μL of the activator mix for a final volume of 20 μL for the reaction. Reactions were performed in triplicate. The RNP master mix was equilibrated at room temperature for 10-15 minutes. 15 μL of the RNP/protein master mix was then added to 5 μL of the activator master mix (pre-loaded into 384-well low-volume flat-bottom black assay plate, Corning) to start the reaction. Fluorescence of the unquenched 6-FAM group (excitation 485 nm, emission 535 or 528 nm) was monitored over 1-2 hours (one reading every 1.5 or 2 min) in a Tecan or Biotek Cytation 5 plate reader at 37° C. An increase in fluorescence correlates with dequenching of the FAM due to RNA cleavage by TtCsm6.
# NCR142, NCR372, NCR373 and NCR374 were compared in the system described above. Specifically, 20 nM Cas13 RNP (assembled at a ratio of 2:1 guide to protein), 100 nM Csm6, 100 pM Cas13 activator [R010]], 200 nM C5 RNA reporter (i.e., 5′-6-FAM-CCCCC-Iowa Black-3′, Integrated DNA Technologies), 2 μM Type III accessory nuclease activator, 1×IGI buffer were used, with the experiment monitored on a Tecan Spark.
# Next, several different 2′-deoxy modified Type III accessory nuclease activators were compared where the activators had 1 to 3 modifications and the modifications were in different locations (see Table 3 and FIG. 4). In these experiments, 20 nM Cas13 RNPs using a guide, GJK073, targeting a short synthetic RNA target, GJK075, was used (see Table 2). In addition, 100 nM Csm6 was used, plus 0 to 200 pM Cas13 activator (GJK075), 2 μM Csm6 activator, 200 nM C5 reporter, and Cas13 1× buffer (IGI). The experiments were carried out at 37° C. in low volume flat-bottom black plates and fluorescence was measured on a Biotek Cytation 5.
# The NCR497 activator was also tested over a range of Type III accessory nuclease activator concentrations and Type VI nuclease activator concentrations. In these experiments, 20 nM Cas13 RNPs comprising the NCR316 guide at a ratio of 2:1 protein to guide were used. In addition, 100 nM TtCsm6 and 200 nM C5 reporter was used where the reaction was carried out in low-volume, flat-bottom plates at 37° C. analyzed on a Biotek citation 5. Type VI nuclease activator (aNCR316) was used at 2 pM or 200 pM concentrations.
# A Type III accessory nuclease activator comprising a single 2′-fluoro modified nucleotide was also modified to create an activator with a single cleavage location for the Cas13 trans nuclease activity. In this Type III accessory nuclease activator, the poly U stretch was replaced with a single U nucleotide followed by C nucleotides. […]
# [2] = target: T2, Csm6 (Thermus thermophilus, UniProt Q53W17); assay: Sensitivity of Cas13 RNA detection with and without Csm6 and its Type III accessory nuclease activator; type: biochemical, T. thermophilus; conditions: 37° C.
# T2 sequence (Q53W17 1-464): T1 sequence (Q53W17 1-464)
# Protocol: In some experiments, the 1× reaction buffer comprised 20 mM HEPES, pH 6.8, 50 mM KCl, 5 mM MgCl2, 100 μg/mL BSA, 0.01% Igepal CA, 2% glycerol (“IGI buffer”) while in other experiments, the 1× reaction buffer comprised 20 mM HEPES, pH 6.8, 50 mM KCl, 5 mM MgCl2, 5% glycerol (“Ott buffer”). Once assembled, the RNPs were diluted with 1× reaction buffer to 10× the final [RNP] in the reaction (200 nM for 20 nM final concentration). Concentrated T. thermophilus Csm6 (TtCsm6) protein was also diluted to 10× the concentration (1 μM for 100 nM final concentration) in 1× reaction buffer. The activator mix was assembled on ice, containing 20× concentration of the Cas13 activator, 20× concentration of the secondary Csm6 activator, and 10× of a polyC RNA reporter (6-FAM-CCCCC-Iowa Black®, Integrated DNA Technologies) in 1× reaction buffer. The proteins were then mixed together to make an RNP/protein master mix in 1× reaction buffer. Volumes to use were determined such that 15 μL of this master mix was added to 5 μL of the activator mix for a final volume of 20 μL for the reaction. […] Fluorescence of the unquenched 6-FAM group (excitation 485 nm, emission 535 or 528 nm) was monitored over 1-2 hours (one reading every 1.5 or 2 min) in a Tecan or Biotek Cytation 5 plate reader at 37° C. An increase in fluorescence correlates with dequenching of the FAM due to RNA cleavage by TtCsm6. […]
substance,measurement,setting,value
"fAfAfAAUUUUUU (AAAAUUUUUU; sugars from the 5' end f3 r7, backbone not given here) [NCR374]",kinetics of development of fluorescent signal over time,[1],slower kinetics than the unmodified Type III accessory nuclease activator
same,duration and level of fluorescent signal,[1],longer lived and reached higher levels than the unmodified activator
"AfAAAUUUUUU (AAAAUUUUUU; sugars from the 5' end r1 f1 r8, backbone not given here) [NCR497]","kinetics, 2′-fluoro modified activators",[1]; FIG. 5,rapid and stable kinetics
same,background signal (0 pM Cas13 activator curves),"[1]; FIG. 5, compared to the 2′-deoxy modified activators",decreased background signal
same,signal in the reaction,"[1]; FIGS. 6 and 7, guide NCR316, 2 pM Type VI nuclease activator aNCR316, versus NCR142 at 2 pM or 200 pM",better signal
same,limit of detection of the Cas13 activator,"[2]; 50 nM Cas13 RNP (guides NCR604 and NCR612), 100 nM Csm6, 2 μM NCR497, gblock7 transcript 0-20 pM, Ott buffer",approximately 2 fM
same,increase in sensitivity when Csm6 reagents were added to the Cas13 detection system,"[2]; FIG. 10, 200 nM Cas13 RNP (guide NCR316) alone vs plus 100 nM Csm6 and 2 μM NCR497, aNCR316 200 aM to 200 pM, IGI buffer",100 fold
"dAdAdAAUUUUUU (AAAAUUUUUU; sugars from the 5' end d3 r7, backbone not given here) [NCR373]",kinetics of development of fluorescent signal over time,[1],slower kinetics than the unmodified Type III accessory nuclease activator
same,duration and level of fluorescent signal,[1],longer lived and reached higher levels than the unmodified activator
"AAdAAUUUUUU (AAAAUUUUUU; sugars from the 5' end r2 d1 r7, backbone not given here) [NCR654]","kinetics and signal, 2′-deoxy modified activators","[1]; FIG. 4, guide GJK073, 0 to 200 pM Cas13 activator GJK075, 2 μM Csm6 activator, 37° C., versus unmodified activators",rapid kinetics and were able to achieve a high and stable signal
"AfAAAUCC (metdC) (metdc) C (AAAAUCCCCC; sugars from the 5' end r1 f1 r5 d2 r1, [5mC] at 8, 9, backbone not given here) [NCR690]",activity of the system,"[1]; FIGS. 8 and 9, activator at 2, 0.2 and 0.1 μM, Cas13 activator at 200 or 2 pM",robust activity
same,background signal,"[1]; FIGS. 8 and 9, compared to NCR497 at the same concentrations",higher background signal compared to the NCR497
